In patent US10421756B2, “Heterobicyclic N-aminophenyl-amides as inhibitors of histone deacetylase” (Rodin Therapeutics, Inc., priority 2015, dated 2019):

Tests used:
Format in all cases: binding
[1] = target: HDAC1 (Homo sapiens (Human), UniProt Q13547); assay: Reporter displacement assay (HDAC1); settings: for Kd: reporter probe displacement, Cheng Prusoff
Protocol: [The procedure below names another target; the source lists this target under the same test.] (§1) HDAC2 containing a C-terminal HIS-Tag (Proteros) and fluorescently-labeled anti-HIS-antibody are diluted in one vial in assay buffer 50 mM Tris, pH 8.0, 1 mM DTT, 150 mM NaCl, and 0.01% Tween20. Components are pre-incubated for 30 min, then a small volume of reporter probe (Proteros) is added from a highly concentrated stock and incubation is continued for another 30 min.
(§2) Ten μl/well of pre-formed complex are transferred into 384 well assay plates (Corning). Compounds to be profiled are serially diluted from […] in DMSO and 60 nl are added to assay plates by pintool transfer (CybiWell, Cybio).
For Kd determination, percent probe displacement values are calculated for each compound concentration and plotted against the compound concentration. […] Since the reporter probe is used at a concentration reflecting its own Kd value, compound Kd values can be calculated according to the Cheng Prusoff equation.

[2] = target: T1, HDAC2 (Homo sapiens (Human), UniProt Q92769); assay: Reporter displacement assay (HDAC2)
T1 sequence (Q92769 whole entry): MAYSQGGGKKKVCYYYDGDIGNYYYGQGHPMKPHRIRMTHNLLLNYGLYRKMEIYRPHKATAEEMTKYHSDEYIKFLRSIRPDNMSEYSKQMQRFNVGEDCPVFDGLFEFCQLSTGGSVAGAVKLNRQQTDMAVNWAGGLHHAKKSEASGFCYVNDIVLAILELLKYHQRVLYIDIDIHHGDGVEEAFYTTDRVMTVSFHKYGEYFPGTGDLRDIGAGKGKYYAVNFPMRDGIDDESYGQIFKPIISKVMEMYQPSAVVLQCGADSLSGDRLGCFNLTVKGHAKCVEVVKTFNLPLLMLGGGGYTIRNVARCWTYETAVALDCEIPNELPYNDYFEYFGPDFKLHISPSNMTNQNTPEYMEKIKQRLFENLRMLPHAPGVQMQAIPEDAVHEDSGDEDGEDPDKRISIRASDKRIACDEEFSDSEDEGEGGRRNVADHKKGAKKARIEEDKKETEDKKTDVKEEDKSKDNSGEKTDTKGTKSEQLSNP

[3] = target: T1, HDAC2; assay: Reporter displacement assay (HDAC2); settings: reporter probe displacement, Cheng Prusoff
Protocol: as §1, with “min. Final concentrations after adding the reporter probe amount to 20 nM HDAC2, 4 nM antibody, and 180 nM probe.” for “min.”
as §2, with “Cybio). Fluorescence intensity signal is read after 4 h in a Pherastar FS (BMG Labtech) at 337/665 nm.” for “Cybio).”
For Kd determination, percent probe displacement values are calculated for each compound concentration and plotted against the compound concentration. IC50-like values (corresponding to 50% probe displacement) are calculated using standard fitting algorithms. Since the reporter probe is used at a concentration reflecting its own Kd value, compound Kd values can be calculated according to the Cheng Prusoff equation.
In the table, “A” indicates a Kd value of less than 0.1 μM; “B” a Kd value of between 0.1 μM and 0.5 μM; “C” a Kd value of greater than 0.5 μM and less than or equal to 5.0 μM; and “D” a Kd value of greater than 5.0 μM.

HDAC1, sequence (Q13547 whole entry): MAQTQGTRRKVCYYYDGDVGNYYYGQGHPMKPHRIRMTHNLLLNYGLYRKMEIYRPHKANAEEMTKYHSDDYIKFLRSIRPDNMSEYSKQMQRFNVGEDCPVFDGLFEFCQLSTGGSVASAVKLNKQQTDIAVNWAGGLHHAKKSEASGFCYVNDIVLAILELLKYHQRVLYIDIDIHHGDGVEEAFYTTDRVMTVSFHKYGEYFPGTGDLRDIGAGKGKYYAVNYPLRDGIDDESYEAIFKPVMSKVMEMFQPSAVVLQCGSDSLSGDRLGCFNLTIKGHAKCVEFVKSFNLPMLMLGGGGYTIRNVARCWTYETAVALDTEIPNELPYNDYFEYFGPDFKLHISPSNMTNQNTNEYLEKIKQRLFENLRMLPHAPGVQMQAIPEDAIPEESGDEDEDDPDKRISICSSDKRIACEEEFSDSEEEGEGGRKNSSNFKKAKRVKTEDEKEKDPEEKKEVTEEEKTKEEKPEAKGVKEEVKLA

Structure (SMILES)	residence time [1] [min]	Kd [1] [nM]	residence time [2] [min]	Kd [3] [nM]
Nc1ccc(-c2ccncc2)cc1NC(=O)N1Cc2cncnc2C1 [Compound 100]	470	100 to 500		
Nc1ccc(-c2ccncc2)cc1NC(=O)N1Cc2nccnc2C1 [Compound 101]	906	< 100	1930	100 to 500
Nc1ccc(-c2ccncc2)cc1NC(=O)N1Cc2ccncc2C1 [Compound 102]	1240	< 100	1410	100 to 500
Nc1ccc(-c2ccncn2)cc1NC(=O)N1Cc2ccncc2C1 [Compound 103]	330	500 to 5000	1960	500 to 5000
CC(C)(C)OC(=O)N1CC2CC1CN2C(=O)Nc1cc(-c2ccncc2)ccc1N (stereo not drawn) [Compound 104]		> 5000		> 5000
Nc1ccc(-c2ccncc2)cc1NC(=O)N1CC2CCC(C1)O2 [Compound 105]		> 5000		> 5000
CC(C)(C)OC(=O)N1C2CCC1CN(C(=O)Nc1cc(-c3ccncc3)ccc1N)C2 [Compound 106]		> 5000		> 5000
CC(=O)N1C2CCC1CN(C(=O)Nc1cc(-c3ccncc3)ccc1N)C2 [Compound 107]		> 5000		> 5000
CC(=O)N1CC2CC1CN2C(=O)Nc1cc(-c2ccncc2)ccc1N (stereo not drawn) [Compound 108]		> 5000		> 5000
CC(=O)N1C2CCC1CN(C(=O)Nc1cc(-c3ccncc3)ccc1N)C2 [Compound 109]		> 5000		> 5000
CC(C)(C)OC(=O)N1C2CCC1CN(C(=O)Nc1cc(-c3ccncc3)ccc1N)C2 [Compound 110]		> 5000		> 5000
Nc1ccc(-c2ccc(F)cc2)cc1NC(=O)N1CC2CCC(C1)O2 [Compound 111]	34	> 5000	61	> 5000
CC(C)(C)OC(=O)N1C2CCC1CN(C(=O)Nc1cc(-c3ccc(F)cc3)ccc1N)C2 [Compound 112]	9	> 5000	38	> 5000
Nc1ccc(-c2ccc(F)cc2)cc1NC(=O)N1CC2CCC(C1)N2 [Compound 113]		> 5000		> 5000
Nc1ccc(-c2ccc(F)cc2)cc1NC(=O)N1CC2CNCC2C1 (stereo not drawn) [Compound 114]	127	> 5000	1470	500 to 5000
CN1CC2CN(C(=O)Nc3cc(-c4ccncc4)ccc3N)CC2C1=O (stereo not drawn) [Compound 115]	98	500 to 5000		500 to 5000
CC(=O)N1C2CCC1CN(C(=O)Nc1cc(-c3ccc(F)cc3)ccc1N)C2 [Compound 116]	16	> 5000	30	> 5000
Nc1ccc(-c2ccc(F)cc2)cc1NC(=O)N1CC2CCC(C1)N2C=O [Compound 117]	29	> 5000	36	500 to 5000
Nc1ccc(-c2ccc(F)cc2)cc1NC(=O)N1CCC2(CCNC2)CC1 [Compound 118]	1180	< 100	636	100 to 500
Nc1ccc(-c2ccc(F)cc2)cc1NC(=O)N1Cc2nccnc2C1 [Compound 119]	1500	100 to 500	2150	100 to 500
CNC(=O)N1CC2CN(C(=O)Nc3cc(-c4ccc(F)cc4)ccc3N)CC2C1 (stereo not drawn) [Compound 120]	1550	< 100	2360	100 to 500
NCC(=O)N1CC2CN(C(=O)Nc3cc(-c4ccc(F)cc4)ccc3N)CC2C1 (stereo not drawn) [Compound 121]	587	100 to 500	869	500 to 5000
Nc1ccc(-c2ccc(F)cc2)cc1NC(=O)c1cn2c(n1)CNCC2 [Compound 122]	1480	< 100	1950	100 to 500

Structure (SMILES)	residence time [1] [min]	Kd [1] [nM]	residence time [2] [min]	Kd [3] [nM]
Nc1ccc(-c2ccncc2)cc1NC(=O)c1cn2c(n1)CNCC2 [Compound 123]	1050	100 to 500	1610	100 to 500
CC(C)(C)OC(=O)N1CC2CN(C(=O)Nc3cc(-c4ccc(F)cc4)ccc3N)CC2C1 (stereo not drawn) [Compound 124]	584	100 to 500	1790	100 to 500
Nc1ccc(-c2ccc(F)cc2)cc1NC(=O)N1CC2CN(C(=O)C3CC3)CC2C1 (stereo not drawn) [Compound 125]	788	< 100	1410	100 to 500
Nc1ccc(-c2ccc(F)cc2)cc1NC(=O)N1CC2CN(C3COC3)CC2C1 (stereo not drawn) [Compound 126]	937	< 100	2620	100 to 500
Nc1ccc(-c2ccc(F)cc2)cc1NC(=O)N1CCC2(CC1)COC2 [Compound 127]	1520	< 100	2540	100 to 500
N#CC1CCc2nc(C(=O)Nc3cc(-c4ccc(F)cc4)ccc3N)cn2C1 (stereo not drawn) [Compound 128]	1730	< 100	1500	100 to 500
Nc1ccc(-c2ccncc2)cc1NC(=O)N1CC2CN(C3COC3)CC2C1 (stereo not drawn) [Compound 129]	724	< 100	1700	100 to 500
Nc1ccc(-c2ccc(Cl)cc2)cc1NC(=O)N1Cc2ccncc2C1 [Compound 130]	1080	< 100	1300	100 to 500
Nc1ccc(-c2ccc(F)c(F)c2)cc1NC(=O)c1cn2c(n1)CNCC2 [Compound 131]	695	100 to 500	1200	100 to 500
Nc1ccc(-c2ccc(C(F)(F)F)cc2F)cc1NC(=O)N1Cc2ccncc2C1 [Compound 132]	47	500 to 5000	111	500 to 5000
Nc1ccc(-c2ccc(F)cc2F)cc1NC(=O)N1Cc2ccncc2C1 [Compound 133]	1300	< 100	1460	100 to 500
Nc1ccc(-c2cccnc2)cc1NC(=O)N1Cc2ccncc2C1 [Compound 134]	192	100 to 500	790	100 to 500
Nc1ccc(-c2ccc(F)c(F)c2)cc1NC(=O)N1Cc2ccncc2C1 [Compound 135]	353	100 to 500	1210	100 to 500
COCCN1CCC2(CCN(C(=O)Nc3cc(-c4ccncc4)ccc3N)CC2)C1 [Compound 136]	941	< 100	1540	100 to 500
Nc1ccc(-c2ccc(F)c(F)c2)cc1NC(=O)N1Cc2nccnc2C1 [Compound 137]	552	100 to 500	1380	100 to 500
COCCN1CCC2(CCN(C(=O)Nc3cc(-c4ccc(F)cc4)ccc3N)CC2)C1 [Compound 138]	724	100 to 500	2370	100 to 500
COc1ccc(-c2ccc(N)c(NC(=O)N3Cc4ccncc4C3)c2)cc1 [Compound 139]	1450	< 100	2260	< 100
Nc1ccc(-c2ccc(C(F)(F)F)cc2)cc1NC(=O)N1Cc2ccncc2C1 [Compound 140]	34	500 to 5000	341	500 to 5000
Cc1cc(F)ccc1-c1ccc(N)c(NC(=O)N2Cc3ccncc3C2)c1 [Compound 141]	1350	> 5000		> 5000
Nc1ccc(-c2cc(F)c(F)c(F)c2)cc1NC(=O)N1Cc2ccncc2C1 [Compound 142]	982	500 to 5000	1010	500 to 5000
Nc1ccc(-c2ccc(F)cc2)cc1NC(=O)N1CCC2(CCN(CCF)C2)CC1 [Compound 143]	1200	< 100	1490	100 to 500
Nc1ccc(-c2ccncc2)cc1NC(=O)N1CCC2(CCN(CCF)C2)CC1 [Compound 144]	296	500 to 5000	1490	500 to 5000
Nc1ccc(-c2ccc(F)c(Cl)c2)cc1NC(=O)N1Cc2ccncc2C1 [Compound 163]		100 to 500		500 to 5000
